The results in this text go back to patent publication US12077503B2, “Substituted cyclic amides and their use as herbicides” (FMC CORPORATION, priority 2015, dated 2024).

Like-named read-outs stand apart in the source and are kept apart here.

What all share (assay type): in vivo
Assay [1] deals with sedge, umbrella (small-flower umbrella sedge, Cyperus difformis). Kind of assay: Test B flooded paddy test. Conditions: Cyperus difformis, Flood, 250 g ai/ha; scale of 0 to 100 where 0 is no effect and 100 is complete control; read-out: Sedge, Umbrella plant response rating. Summed up: (§1)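 Evaluation by eye, against controls, occurred 13–15 d post-treatment in a greenhouse, using a 0 (no effect) to 100 (complete control) scale. Application was into the paddy water, 3 cm deep over the soil, on 2-leaf plants.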

Assay [2] concerns rice (Oryra sativa). Kind of assay: Test B flooded paddy test. The settings on record: Oryza sativa, Flood, 250 g ai/ha; scale of 0 to 100 where 0 is no effect and 100 is complete control; read-out: Rice plant response rating. A digest of the protocol:
as §1

Assay [3] has as its system barnyardgrass (Echinochloa crus-galli). Kind of assay: Test B flooded paddy test. The settings on record: Echinochloa crus-galli, Flood, 250 g ai/ha; scale of 0 to 100 where 0 is no effect and 100 is complete control; read-out: Barnyardgrass plant response rating. A digest of the protocol: as §1
Assay [4] deals with ducksalad (Heteranthera limosa). Kind of assay: Test B flooded paddy test. Conditions: Heteranthera limosa, Flood, 250 g ai/ha; scale of 0 to 100 where 0 is no effect and 100 is complete control; read-out: Ducksalad plant response rating. Summed up: as §1
Assay [5] concerns Galium (catchweed bedstraw, Galium aparine). Kind of assay: Test A postemergence. The settings on record: Galium, post-emergence, 240 h, 125 g ai/ha, Postemergence; visual injury after approximately 10 d; 0 to 100 scale where 0 is no effect and 100 is complete control; read-out: Plant response rating, Galium. A digest of the protocol: (§2)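 Preemergence directed soil spray on seeded pots, or postemergence application to plants 2–10 cm, one- to two-leaf. Solvent mixture non-phytotoxic, with surfactant. Scored ~10 d later, visually, 0–100 vs untreated.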

Assay [6] concerns pigweed (Amaranthus retroflexus). Kind of assay: Test A postemergence. Conditions: Amaranthus retroflexus, post-emergence, 240 h, 125 g ai/ha, Postemergence; visual injury after approximately 10 d; 0 to 100 scale where 0 is no effect and 100 is complete control; read-out: Plant response rating, Pigweed. A digest of the protocol: as §2
Assay [7] concerns ryegrass, Italian (Italian ryegrass, Lolium multiflorum). Kind of assay: Test A postemergence. The settings on record: Lolium multiflorum, post-emergence, 240 h, 125 g ai/ha, Postemergence; visual injury after approximately 10 d; 0 to 100 scale where 0 is no effect and 100 is complete control; read-out: Plant response rating, Ryegrass, Italian. A digest of the protocol: as §2
Assay [8] concerns corn (Zea mays). Kind of assay: Test A postemergence. Conditions: Zea mays, post-emergence, 240 h, 125 g ai/ha, Postemergence; visual injury after approximately 10 d; 0 to 100 scale where 0 is no effect and 100 is complete control. Summed up:
as §2

For assay [9], the system named is blackgrass (Alopecurus myosuroides). Kind of assay: Test A postemergence. The settings on record: Alopecurus myosuroides, post-emergence, 240 h, 125 g ai/ha, Postemergence; visual injury after approximately 10 d; 0 to 100 scale where 0 is no effect and 100 is complete control; read-out: Plant response rating, Blackgrass. Summed up: as §2
The test system of assay [10] is giant foxtail (Setaria faberii). Kind of assay: Test A postemergence. The settings on record: Setaria faberi, post-emergence, 240 h, 125 g ai/ha, Postemergence; visual injury after approximately 10 d; 0 to 100 scale where 0 is no effect and 100 is complete control; read-out: Plant response rating, Foxtail, Giant. A digest of the protocol:
as §2

Assay [11] concerns barnyardgrass (Echinochloa crus-galli). Kind of assay: Test A postemergence. Conditions: Echinochloa crus-galli, post-emergence, 240 h, 125 g ai/ha, Postemergence; visual injury after approximately 10 d; 0 to 100 scale where 0 is no effect and 100 is complete control; read-out: Plant response rating, Barnyardgrass. A digest of the protocol:
as §2

Assay [12] deals with ragweed (common ragweed, Ambrosia elatior). The assay can be described thus: Test A postemergence. The settings on record: Ambrosia artemisiifolia, post-emergence, 240 h, 125 g ai/ha, Postemergence; visual injury after approximately 10 d; 0 to 100 scale where 0 is no effect and 100 is complete control; read-out: Plant response rating, Ragweed. Summed up:
as §2

The subject of assay [13] is wheat (Triticum aestivum). The assay can be described thus: Test A postemergence. Conditions: Triticum aestivum, post-emergence, 240 h, 125 g ai/ha, Postemergence; visual injury after approximately 10 d; 0 to 100 scale where 0 is no effect and 100 is complete control; read-out: Plant response rating, Wheat. A digest of the protocol:
as §2

Assay [14] concerns Kochia (Kochia scoparia). The assay can be described thus: Test A postemergence. Conditions: Bassia scoparia, post-emergence, 240 h, 125 g ai/ha, Postemergence; visual injury after approximately 10 d; 0 to 100 scale where 0 is no effect and 100 is complete control; read-out: Plant response rating, Kochia. Summed up:
as §2

Assay [15] relates to ryegrass, Italian (Italian ryegrass, Lolium multiflorum). Kind of assay: Test A preemergence. Conditions: Lolium multiflorum, pre-emergence, 240 h; for pest or weed control at 125 g/ha: 125 g ai/ha; for pest or weed control at 500 g/ha: 500 g ai/ha. Summed up: as §2
The mark [16] stands for this setting: Preemergence, visual injury rating after approximately 10 d, read-out: Ryegrass, Italian plant response rating (0 to 100 scale, 0 is no effect, 100 is complete control).
Where [17] appears, read: preemergence, visual injury rating about 10 d after treatment, 0 to 100 scale (0 no effect, 100 complete control), read-out: Ryegrass, Italian plant response rating.

In the case of `CN1CC[C@H](c2cccc(Cl)c2)[C@@H](C(=O)Nc2cccc(Cl)c2F)C1=O` [Compound 924], the pest or weed control at 250 g/ha in assay [1] worked out at 0%; in assay [2], 0%; in assay [3], 50%; in [4] it was 70%. Moreover, the pest or weed control at 125 g/ha in assay [5] turned out to be 0%; in assay [6], 0%; in assay [7], 0%; in [9], 0%; in [10], 90%; in assay [11], 90%. Moreover, the pest or weed control at 125 g/ha in assay [12] stood at 0%; in assay [14] it was 0%; in [15] (preemergence, 0 to 100 scale where 0 is no effect and 100 is complete control, read-out: Ryegrass, Italian plant response rating), 20%. In assay [8], this compound yielded a Corn plant response rating (crop injury, 0 = no effect, 100 = complete kill) at 125 g/ha of 0%. The plant injury at 125 g/ha in [13] was found to be 0%. Also, the pest or weed control at 500 g/ha in assay [15] (Preemergence, visual injury vs untreated controls after approximately 10 d, read-out: Ryegrass, Italian plant response rating (0 to 100 scale where 0 is no effect and 100 is complete control)) is 70%.

On to `Cc1cc([C@H]2CN(C)C(=O)[C@@H]2C(=O)Nc2ccccc2S(C)(=O)=O)ccc1Cl` [Compound 944], for which the pest or weed control at 250 g/ha in assay [1] was 0%; in assay [2] it was 0%; in assay [3] it was 40%; in [4], 75%. The pest or weed control at 125 g/ha in assay [5] is 20%; in assay [6], 30%; in assay [7], 30%; in assay [9], 60%; in assay [10] it was 90%; in assay [11], 80%. The pest or weed control at 125 g/ha amounted to 40% in assay [12], 0% in assay [14] and 0% in [15] (setting [16]). This compound also gave a Corn plant response rating (crop injury, 0 = no effect, 100 = complete kill) at 125 g/ha in assay [8] of 30%. Also, in [13], the plant injury at 125 g/ha turned out to be 40%. Moreover, the pest or weed control at 500 g/ha in [15] (setting [17]) came to 0%.

Take `O=C1NC[C@H](c2cc(C(F)(F)F)ccn2)[C@H]1C(=O)Nc1ccccc1F` [Compound 948]: the pest or weed control at 250 g/ha in assay [1], in [2], in assay [3] and in assay [4] was 0% in each case. The pest or weed control at 125 g/ha worked out at 0% in [5]; 0% in assay [6]; 0% in assay [7]; 0% in [9]; 70% in assay [10]; 70% in assay [11]. The pest or weed control at 125 g/ha in assay [12], in assay [14] and in assay [15] (setting [16]) was 0% in each case. Moreover, the Corn plant response rating (crop injury, 0 = no effect, 100 = complete kill) at 125 g/ha in assay [8] amounted to 0%. Further, in assay [13], the plant injury at 125 g/ha is 0%. In addition, the pest or weed control at 500 g/ha in assay [15] (setting [17]) amounted to 0%.

For `CC(C)Oc1ccc([C@H]2CN(C)C(=O)[C@@H]2C(=O)Nc2ccc(F)cc2F)cc1` [Compound 954], the pest or weed control at 250 g/ha was 0% in assay [1], 0% in [2], 0% in [3] and 35% in [4]. For the same compound, the pest or weed control at 125 g/ha in assay [5] was found to be 0%; in assay [6] it was 0%; in assay [7] it was 0%; in assay [9] it was 0%; in assay [10] it was 60%; in [11], 60%. Moreover, the pest or weed control at 125 g/ha in assay [12], in assay [14] and in assay [15] (setting [16]) was 0% throughout. In assay [8], this compound came in with a Corn plant response rating (crop injury, 0 = no effect, 100 = complete kill) at 125 g/ha of 0%. Further, in assay [13], the plant injury at 125 g/ha worked out at 0%. In addition, the pest or weed control at 500 g/ha in assay [15] (setting [17]) is 0%.
